Measured values from PMC2719696, “Kinetics and Cellular Site of Glycolipid Loading Control the Outcome of Natural Killer T Cell Activation” (Immunity, 2009).

Molecular target: T1, mCD1d (Mus musculus, UniProt P11609)
T1 construct: host or cells: JAWS II (C57BL/6.Trp53-/- derived dendritic cell line)
T1 sequence (P11609 22-336): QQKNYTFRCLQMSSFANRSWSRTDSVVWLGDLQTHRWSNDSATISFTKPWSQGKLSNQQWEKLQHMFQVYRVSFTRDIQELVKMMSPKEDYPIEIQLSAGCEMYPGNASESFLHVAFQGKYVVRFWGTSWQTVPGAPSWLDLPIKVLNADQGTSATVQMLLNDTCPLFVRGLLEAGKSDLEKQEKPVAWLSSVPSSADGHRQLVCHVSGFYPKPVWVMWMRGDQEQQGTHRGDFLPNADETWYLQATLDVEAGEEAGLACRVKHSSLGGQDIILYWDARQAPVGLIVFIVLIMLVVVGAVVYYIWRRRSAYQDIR
T1 sequence (P01887 21-119 partner): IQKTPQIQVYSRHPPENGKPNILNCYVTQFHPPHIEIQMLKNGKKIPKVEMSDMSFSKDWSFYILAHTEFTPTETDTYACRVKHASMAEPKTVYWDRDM
Assay: Confocal microscopy of L363 staining in JAWS II cells (surface and permeabilized)
Assay type: cell-based
Settings: for L363 surface staining of intact cells (confocal): 100 nM glycolipid, 1, 4 or 16 hr; for site of L363 staining in permeabilized cells: 1 hr incubation, co-stained for LAMP-1
Procedure: To visualize the kinetics and sites of mCD1d loading by αGalCer analogs in live cells, we analyzed intact JAWS II cells for surface staining with mAb L363 after 1, 4, or 16 hr of incubation with αGalCer-C26:0 or with either of two Th2 cell-type cytokine-biasing analogs (αGalCer-C20:2 or -C10:0) (Figure 4A). Strong staining of the plasma membrane was seen after 16 hr of incubation in all cases. […] To image earlier steps in glycolipid loading, we permeabilized and fixed cells prior to staining with L363 and with an antibody to the late endosomal and lysosomal marker LAMP-1 (Figure 4A). […] At 4 hr, these complexes began to colocalize with LAMP-1, and only at 16 hr could clear surface staining be seen along with the persistent intracellular staining in LAMP-1^+ compartments (Figure 4A).
Figure 4 Cell Surface versus Intracellular Loading of mCD1d with Different αGalCer Analogs (A) On the left, surface accumulation of CD1d-αGalCer complexes was studied with JAWS II cells harvested after incubation with the indicated glycolipids for 1, 4, or 16 hr and then stained without permeabilization with mAb L363 (red). Cells were then fixed, stained with DAPI for nuclei visualization (blue), and analyzed by confocal microscopy. On the right, the intracellular formation and trafficking of CD1d-αGalCer complexes were analyzed by treatment of JAWS II cells with αGalCer analogs for 1, 4, and 16 hr followed by fixation and permeabilization. The cells were stained for CD1d-αGalCer complexes (L363, red), late endosomes and lysosomes (anti-LAMP-1, green), and nuclei (DAPI, blue). Results are representative of three separate experiments. The scale bar represents 10 μm. (B) Murine iNKT cell hybridoma cells (DN3A4.1-2) were stimulated with αGalCer analogs. As APCs for these stimulations, we used A20 cells transfected with wild-type CD1d (CD1d.WT) or cytoplasmic-tail-deleted CD1d (CD1d.TD). Supernatant concentrations of IL-2 release were determined after 12 hr. IL-2 production over a range of concentrations is shown for αGalCer-C26:0 and two analogs that produce a Th2 cell-type cytokine bias (αGalCer-C20:2 and -PGB1).
JAWS II cells were incubated at 37°C with 100 nM glycolipids for various times as indicated. For surface staining, live cells were harvested and washed extensively with PBS, resuspended in PBS + 1% BSA + 0.1% NaN3, stained on ice with 10 μg/ml Alexa Fluor 647-conjugated mAb L363 for 30 min, and lastly washed extensively and fixed with 4% paraformaldehyde. Cells were washed with PBS and settled onto poly-L-lysine-coated coverslips for 30 min and mounted with ProLong Gold with DAPI mounting medium (Invitrogen). For intracellular staining, JAWS II cells grown on glass coverslips were fixed in 4% paraformaldehyde, permeabilized with 0.05% Triton X-100 for 5 min, and stained with 10 μg/ml Alexa Fluor 647-conjugated L363 and FITC-conjugated anti-LAMP-1. Coverslips were washed and mounted. Confocal images were obtained with a Leica SP2 AOBS confocal microscope (Leica Microsystems). For colocalization of αGalCer/mCD1d complexes with ganglioside GM1-enriched plasma membrane lipid rafts, JAWS II cells were incubated for 18 hr at 37°C in complete medium without or with 100 nM of glycolipids. […] We performed quantitative analysis of colocalization by selecting 20–25 random cells in each group and determining a Pearson correlation coefficient for the distribution of pixel densities for K253 or L363 fluorescence compared to cholera toxin B-specific fluorescence. […]

CCCCCCCCCCCCCCC(O)C(O)C(COC1OC(CO)C(O)C(O)C1O)NC(=O)CCCCCCCCC (centres unmarked) [αGalCer-C10:0]
L363 surface staining of intact cells (confocal): showed L363 staining at earlier time points | site of L363 staining in permeabilized cells: L363 staining was observed at the plasma membrane

CCCCCC=CCC=CCCCCCCCCCC(=O)NC(COC1OC(CO)C(O)C(O)C1O)C(O)C(O)CCCCCCCCCCCCCC (centres unmarked) [αGalCer-C20:2]
L363 surface staining of intact cells (confocal): showed L363 staining at earlier time points | site of L363 staining in permeabilized cells: L363 staining was observed at the plasma membrane

CCCCCCCCCCCCCCCCCCCCCCCCCC(=O)NC(COC1OC(CO)C(O)C(O)C1O)C(O)C(O)CCCCCCCCCCCCCC (centres unmarked) [αGalCer-C26:0, reference compound]
site of L363 staining in permeabilized cells: observed only in a punctate intracellular distribution
